Reference: patent US12186353B2, “Method of reducing neuronal microtubule binding protein Tau (Tau) levels” (ADAERATA, LIMITED PARTNERSHIP, priority 2018, dated 2025)
Peptide text beside a SMILES is read from it. * marks the point of attachment. Cbz = O=C(OCc1ccccc1)*

B1: Numb-66: 66 kDa Numb isoform with long PTB domain and short PRR; human isoform 2 (SEQ ID NO: 3) (protein)
chain: MNKLRQSFRRKKDVYVPEASRPHQWQTDEEGVRTGKCSFPVKYLGHVEVDESRGMHICEDAVKRLKAERKFFKGFFGKTGKKAVKAVLWVSADGLRVVDEKTKDLIVDQTIEKVSFCAPDRNFDRAFSYICRDGTTRRWICHCFMAVKDTGERLSHAVGCAFAACLERKQKREKECGVTATFDASRTTFTREGSFRVTTATEQAEREEIMKQMQDAKKAETDKIVVGSSVAPGNTAPSPSSPTSPTSDATTSLEMNNPHAIPRRHAPIEQLARQGSFRGFPALSQKMSPFKRQLSLRINELPSTMQRKTDFPIKNAVPEVEGEAESISSLCSQITNAFSTPEDPFSSAPMTKPVTVVAPQSPTFQGTEWGQSSGAASPGLFQAGHRRTPSEADRWLEEVSKSVRAQQPQASAAPLQPVLQPPPPTAISQPASPFQGNAFLTSQPVPVGVVPALQPAFVPAQSYPVANGMPYPAPNVPVVGITPSQMVANVFGTAGHPQAAHPHQSPSLVRQQTFPHYEASSATTSPFFKPPAQHLNGSAAFNGVDDGRLASADRHTEVPTGTCPVDPFEAQWAALENKSKQRTNPSPTNPFSSDLQKTFEIEL
modifications: homo sapiens
B2: Numb-65: 65 kDa Numb isoform with short PTB domain and short PRR; human isoform 4 (SEQ ID NO: 7) (protein)
chain: MNKLRQSFRRKKDVYVPEASRPHQWQTDEEGVRTGKCSFPVKYLGHVEVDESRGMHICEDAVKRLKATGKKAVKAVLWVSADGLRVVDEKTKDLIVDQTIEKVSFCAPDRNFDRAFSYICRDGTTRRWICHCFMAVKDTGERLSHAVGCAFAACLERKQKREKECGVTATFDASRTTFTREGSFRVTTATEQAEREEIMKQMQDAKKAETDKIVVGSSVAPGNTAPSPSSPTSPTSDATTSLEMNNPHAIPRRHAPIEQLARQGSFRGFPALSQKMSPFKRQLSLRINELPSTMQRKTDFPIKNAVPEVEGEAESISSLCSQITNAFSTPEDPFSSAPMTKPVTVVAPQSPTFQGTEWGQSSGAASPGLFQAGHRRTPSEADRWLEEVSKSVRAQQPQASAAPLQPVLQPPPPTAISQPASPFQGNAFLTSQPVPVGVVPALQPAFVPAQSYPVANGMPYPAPNVPVVGITPSQMVANVFGTAGHPQAAHPHQSPSLVRQQTFPHYEASSATTSPFFKPPAQHLNGSAAFNGVDDGRLASADRHTEVPTGTCPVDPFEAQWAALENKSKQRTNPSPTNPFSSDLQKTFEIEL
modifications: homo sapiens
B3: Numb-71: 71 kDa Numb isoform with short PTB domain and long PRR; human isoform 3 (SEQ ID NO: 6) (protein)
chain: MNKLRQSFRRKKDVYVPEASRPHQWQTDEEGVRTGKCSFPVKYLGHVEVDESRGMHICEDAVKRLKATGKKAVKAVLWVSADGLRVVDEKTKDLIVDQTIEKVSFCAPDRNFDRAFSYICRDGTTRRWICHCFMAVKDTGERLSHAVGCAFAACLERKQKREKECGVTATFDASRTTFTREGSFRVTTATEQAEREEIMKQMQDAKKAETDKIVVGSSVAPGNTAPSPSSPTSPTSDATTSLEMNNPHAIPRRHAPIEQLARQGSFRGFPALSQKMSPFKRQLSLRINELPSTMQRKTDFPIKNAVPEVEGEAESISSLCSQITNAFSTPEDPFSSAPMTKPVTVVAPQSPTFQANGTDSAFHVLAKPAHTALAPVAMPVRETNPWAHAPDAANKEIAATCSGTEWGQSSGAASPGLFQAGHRRTPSEADRWLEEVSKSVRAQQPQASAAPLQPVLQPPPPTAISQPASPFQGNAFLTSQPVPVGVVPALQPAFVPAQSYPVANGMPYPAPNVPVVGITPSQMVANVFGTAGHPQAAHPHQSPSLVRQQTFPHYEASSATTSPFFKPPAQHLNGSAAFNGVDDGRLASADRHTEVPTGTCPVDPFEAQWAALENKSKQRTNPSPTNPFSSDLQKTFEIEL
modifications: homo sapiens

Key:
RGCs = test: RGC survival after intravitreal NMDA in Numb cKO and control mice; assay type: in vivo, mouse; conditions: sublethal doses of NMDA in the eyes, 3 days later, Numb cKO mice compared to control
Experimental: FIGS. 5A-C: Down regulation of Tau in Numb cKO RGCs rescues survival to control levels after NMDA-mediated excitotoxicity. FIG. 5A. Immunostaining for Brn3b on retina flat mounts in control and cKO 5-month-old mice 3 days after injection of saline (left panels, FIG. 5A) or NMDA (10 mM; right panels FIG. 5A). Images were taken in the ganglion cell layer. FIGS. 5B and C. Quantification of the number of Brn3b+RGCs per mm^2 in control and cKO mice 3 days after intravitreal injection of saline (FIG. 5B) or NMDA (FIG. 5C). Error bars represent SEM, * p≤0.05, n.s. non-significant; Student's t test. FIG. 5D. Analysis of Tau levels by western blot in retinal extract 24 h, 48 h or 72 h after injection of siRNA against Tau in the eye. […] FIG. 5E. […] Quantification of number of Brn3b RGC per mm^2 in control and cKO mice 72 h after injection. […]
RGCs survival was assessed by counting Brn3b-positive cells on retina flat mounts the within four square (212 um×212 um) areas around the optic nerve disc, and averaging this number per retina and calculate with the area by multiplied by the total area of square. Cell type quantification in retinal section were made by averaging the total number of positive cells for specific markers in a […] region of the central and peripheral retina on 4 different retinal sections per animal. […]

Tau::GFP fusion protein = test: Intracellular Tau::GFP fluorescence in stable inducible HEK293 cells with proteasome or lysosome inhibitor; assay type: cell-based; conditions: inhibitor 25 uM for 4 h before fixation
Experimental: FIG. 7A Stable inducible cell line HEK293 that express a Tau::GFP fusion protein was transfected with Control Myc or Numb72::Myc, and the Tau::GFP expression was activated by adding Doxycycline 6 h later. The cells were fixed 48 h later and stained for Myc. FIG. 7B. The mean intensity (±SEM) of intracellular Tau::GFP fluorescence in transfected cells was quantified. Cells were treated with vehicle, MG132 (a proteasome inhibitor, 25 uM) or Chloroquine (a lysosome inhibitor, 25 uM) for 4 h before fixation and Myc staining. Quantification represents mean intensity +/− SEM, *p≤0.01; Anova 1-way test.
The potential role of the proteasome and of the lysosome on the ability of Numb to reduce Tau levels was assessed. A stable inducible cell line (HEK293) expressing a Tau::GFP fusion protein was transfected with
Numb72 or a control empty vector. The intracellular Tau::GFP levels was compared when the cells were treated with a proteasome inhibitor (MG132), a lysosome inhibitor (Chloroquine) or a control (vehicle). […] (FIGS. 7A-B).

Tau = test: Western blot of Tau fusion protein levels in HEK293T cells co-expressing Numb isoforms; assay type: cell-based; conditions: 48 hours after transfection
Excerpt: FIGS. 6A-I: Isoform Numb-72 interacts with Tau and regulates Tau level. FIG. 6A. Schematic of 4 Numb isoforms, differing with the presence or the absence of an insertion (arrowhead) in PTB domain arrowhead, and the presence or the absence of an insertion in the proline-rich region (PRR). FIG. 6B. Coimmunoprecipitation of Tau and 4 isoforms of Numb in HEK293 cells. Each Numb isoform was transfected in HEK293T cells together with a flag-tagged version of Tau and immunoprecipitation was perform 24 hours later with a flag antibody and blotted for Numb. […] FIG. 6C. Detection of Tau::GFP level in presence of 4 isoforms of Numb by western blot in HEK293. All the Numb isoforms were transfected with a Tau::GFP fusion protein in HEK293T cells and the levels of Tau::GFP was analysed by western blot 48 hours after transfection. FIG. 6D. Schematic representation of DNA construct of a human-medulloblastoma-derived cell line (DAOY) expressing human Tau fused with EGFP (Lasagna-Reeves et al., 2016). Additionally, this cell line expresses DsRed upstream of an internal ribosomal entry site (IRES), which is translated independently of the Tau-GFP protein. DsRed-IRES-Tau::EGFP expressing cells were used to assess the abundance of Tau by monitoring the Tau-GFP to DsRed fluorescence ratio. FIG. 6E. DsRed and Tau::EGF expression in Daoy cells, transfected with Myc only construct. FIGS. 6F-J. Fluorescence-activated cell sorting (FACs) analysis of the 4 Numb isoforms affected 3 days after transfection on ratio DsRed versus DsRed and GFP-positives cells compared to the control (Myc-Tag). FIG. 6K Quantification represents fold change for 5 experiments, +/− SEM, **p≤0.001; n.s. non-significant Anova 1-way test.
Numb72::Myc. HEK293T cells were transfected with Jet Prime using the following constructs Tau::Flag, Tau::GFP, Numb65, Numb66, Numb71 and Numb72.
Cells were harvested, and lysed in a NP-40 buffer (50 mm TRIS, pH 8.0, 150 mm NaCl, 1.0% NP-40 with Complete Protease Inhibitor Cocktail (Roche)). For immunoblotting, 40 μg of protein samples for in vivo blot and 10 ug for in vitro blot were loaded on a 10% acrylamide SDS-PAGE gels for separation by electrophoresis migration and then transferred onto PVDF membranes using transblot machine (Millipore). […] The primary antibody was detected with an HRP-conjugated goat anti-rabbit (1:10,000; Jackson Immunoresearch) in 0.5% dry milk in TBST. […]
To determine whether increasing the levels of Numb could affect the levels of Tau, the inventors co-expressed all isoforms of Numb together with a Tau::Venus fusion protein in HEK293T cells and analyzed the levels of Tau::Venus by western blot 48 hours after transfection.

Row | Molecule | effect of inhibitor on the ability of Numb72 to reduce Tau::GFP levels (Tau::GFP fusion protein) | levels of Tau::Venus by western blot (Tau) | other results
1 | CN[C@H](CC(=O)O)C(=O)O [NMDA, N-methyl-D-aspartate] |  |  | RGC numbers (RGCs): two-fold reduction of RGC numbers
2 | CCN(CC)CCCC(C)Nc1ccnc2cc(Cl)ccc12 (stereo not drawn) [Chloroquine] | neither the proteasome inhibitor nor the lysosome inhibitor abolished the ability of Numb72 to reduce Tau::GFP levels |  | 
3 | CC(C)C[C@@H](C=O)NC(=O)[C@H](CC(C)C)NC(=O)[C@H](CC(C)C)NC(=O)OCc1ccccc1 [MG132] (Cbz-Leu-Leu-Leu-aldehyde) | neither the proteasome inhibitor nor the lysosome inhibitor abolished the ability of Numb72 to reduce Tau::GFP levels |  | 
4 | B1 |  | significantly reduced the levels of Tau | 
5 | B2 |  | did not affect Tau levels | 
6 | B3 |  | did not affect Tau levels | 
